According to the supplement of paper PMC10627819:

Assays:
S. aureus Newman [1] = assay: Bliss interaction score (quartile over a dose matrix) (fitness difference); higher = more antagonism (negative = synergy); conditions: main component drawn
Outline: (§1)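 Quartiles summarise the Bliss score over technical, biological and donor/recipient replicates, where the score is observed minus expected fitness under a product model. Expected fitness uses single-drug values inferred from combination data. Fitness is OD595 at entry into stationary phase over the plate's robust no-drug mean, capped at 1.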

B. subtilis 168 [2] = assay: as above; conditions: main component drawn
Outline: as §1

S. aureus DSM 20231 = assay: as above; conditions: main component drawn
Outline: as §1

S. pneumoniae D39V [3] = assay: as above; conditions: main component drawn
Outline: as §1

B. subtilis 168 [4] = assay: fitness (endpoint OD595 vs no drug) (fraction); higher = more growth; conditions: main component drawn
Outline: (§2)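 Plates with 384 wells were inoculated at OD595 0.01 using 30 µl of TSB, LB Lennox or CY, or 55 µl for S. pneumoniae. Incubation was at 37 °C, with OD595 measured every 30 min for 14 h. Fitness is the stationary-phase transition optical density over the robust mean of no-drug control wells, after first-reading background subtraction; it is capped at 1.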

S. pneumoniae D39V [5] = assay: as above; conditions: main component drawn
Outline: as §2

S. aureus Newman [6] = assay: as above; conditions: one replicate, main component drawn
Outline: as §2
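Wherever Bliss interaction score (quartile over a dose matrix) is given: first quartile when negative (synergy) and third quartile when positive (antagonism).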

Compound: COc1c(N2C[C@@H]3CCCN[C@@H]3C2)c(F)cc2c(=O)c(C(=O)O)cn(C3CC3)c12 [Moxifloxacin] + CCC(C)C1C(=O)NC(=C)C(=O)NC(C(=O)NC(CSCC(C(=O)N1)NC(=O)/C(=C/C)/NC(=O)C(C(C)CC)N)C(=O)NC2C(SCC(NC(=O)CNC(=O)C3CCCN3C2=O)C(=O)NC(CCCCN)C(=O)NC4C(SCC(NC(=O)CNC(=O)C(NC(=O)C(NC(=O)C(NC(=O)CNC4=O)C)CC(C)C)CCSC)C(=O)NC(CC(=O)N)C(=O)NC(CCSC)C(=O)NC(CCCCN)C(=O)NC5C(SCC6C(=O)NC(C(=O)NC(CSC(C(C(=O)N6)NC(=O)C(NC5=O)C)C)C(=O)NC(CO)C(=O)NC(C(C)CC)C(=O)NC(CC7=CN=CN7)C(=O)NC(C(C)C)C(=O)NC(=C)C(=O)NC(CCCCN)C(=O)O)CC8=CN=CN8)C)C)C)CC(C)C [Nisin]
- Bliss interaction score (S. aureus Newman [1]): -0.0568
- Bliss interaction score (B. subtilis 168 [2]): 0.0196
- Bliss interaction score (S. aureus DSM 20231): 0.0667
- Bliss interaction score (S. pneumoniae D39V [3]): 0.116
- fitness (B. subtilis 168 [4]; first compound 0.0312 µg/mL, partner 0.5 µg/mL): 0.0551
- fitness (B. subtilis 168 [4]; first compound 0.0312 µg/mL, partner 1 µg/mL): 0.0324
- fitness (B. subtilis 168 [4]; first compound 0.0312 µg/mL, partner 1.25 µg/mL, one replicate): 0.0287
- fitness (B. subtilis 168 [4]; first compound 0.0312 µg/mL, partner 1.6 µg/mL, one replicate): 0.0362
- fitness (B. subtilis 168 [4]; first compound 0.0312 µg/mL, partner 2 µg/mL): 0.0208
- fitness (B. subtilis 168 [4]; first compound 0.0312 µg/mL, partner 2.5 µg/mL, one replicate): 0.037
- fitness (B. subtilis 168 [4]; first compound 0.0312 µg/mL, partner 3.2 µg/mL, one replicate): 0.0222
- fitness (B. subtilis 168 [4]; first compound 0.0312 µg/mL, partner 5 µg/mL, one replicate): 0.0373
- fitness (B. subtilis 168 [4]; first compound 0.0312 µg/mL, partner 6.4 µg/mL, one replicate): 0.0438
- fitness (B. subtilis 168 [4]; first compound 0.0625 µg/mL, partner 0.5 µg/mL): 0.0449
- fitness (B. subtilis 168 [4]; first compound 0.0625 µg/mL, partner 1 µg/mL): 0.0306
- fitness (B. subtilis 168 [4]; first compound 0.0625 µg/mL, partner 1.25 µg/mL, one replicate): 0.0387
- fitness (B. subtilis 168 [4]; first compound 0.0625 µg/mL, partner 1.6 µg/mL, one replicate): 0.0251
- fitness (B. subtilis 168 [4]; first compound 0.0625 µg/mL, partner 2 µg/mL): 0.022
- fitness (B. subtilis 168 [4]; first compound 0.0625 µg/mL, partner 2.5 µg/mL, one replicate): 0.0186
- fitness (B. subtilis 168 [4]; first compound 0.0625 µg/mL, partner 3.2 µg/mL, one replicate): 0.0273
- fitness (B. subtilis 168 [4]; first compound 0.0625 µg/mL, partner 5 µg/mL, one replicate): 0.0148
- fitness (B. subtilis 168 [4]; first compound 0.0625 µg/mL, partner 6.4 µg/mL, one replicate): 0.0244
- fitness (B. subtilis 168 [4]; first compound 0.125 µg/mL, partner 0.5 µg/mL): 0.0446
- fitness (B. subtilis 168 [4]; first compound 0.125 µg/mL, partner 1 µg/mL): 0.0343
- fitness (B. subtilis 168 [4]; first compound 0.125 µg/mL, partner 1.25 µg/mL, one replicate): 0.0145
- fitness (B. subtilis 168 [4]; first compound 0.125 µg/mL, partner 1.6 µg/mL, one replicate): 0.0203
- fitness (B. subtilis 168 [4]; first compound 0.125 µg/mL, partner 2 µg/mL): 0.0231
- fitness (B. subtilis 168 [4]; first compound 0.125 µg/mL, partner 2.5 µg/mL, one replicate): 0.0151
- fitness (B. subtilis 168 [4]; first compound 0.125 µg/mL, partner 3.2 µg/mL, one replicate): 0.0354
- fitness (B. subtilis 168 [4]; first compound 0.125 µg/mL, partner 5 µg/mL, one replicate): 0.0138
- fitness (B. subtilis 168 [4]; first compound 0.125 µg/mL, partner 6.4 µg/mL, one replicate): 0.0155
- fitness (B. subtilis 168 [4]; first compound 2 µg/mL, partner 0.5 µg/mL, one replicate): 0.0297
- fitness (B. subtilis 168 [4]; first compound 2 µg/mL, partner 1 µg/mL, one replicate): 0.0435
- fitness (B. subtilis 168 [4]; first compound 2 µg/mL, partner 2 µg/mL, one replicate): 0.0532
- fitness (B. subtilis 168 [4]; first compound 2 µg/mL, partner 4 µg/mL, one replicate): 0.0258
- fitness (B. subtilis 168 [4]; first compound 2 µg/mL, partner 8 µg/mL, one replicate): 0.0213
- fitness (B. subtilis 168 [4]; first compound 2 µg/mL, partner 16 µg/mL, one replicate): 0.008
- fitness (B. subtilis 168 [4]; first compound 4 µg/mL, partner 0.5 µg/mL, one replicate): 0.0204
- fitness (B. subtilis 168 [4]; first compound 4 µg/mL, partner 1 µg/mL, one replicate): 0.031
- fitness (B. subtilis 168 [4]; first compound 4 µg/mL, partner 2 µg/mL, one replicate): 0.0341
- fitness (B. subtilis 168 [4]; first compound 4 µg/mL, partner 4 µg/mL, one replicate): 0.0254
- fitness (B. subtilis 168 [4]; first compound 4 µg/mL, partner 8 µg/mL, one replicate): 0.0075
- fitness (B. subtilis 168 [4]; first compound 4 µg/mL, partner 16 µg/mL, one replicate): 0.0061
- fitness (B. subtilis 168 [4]; first compound 8 µg/mL, partner 0.5 µg/mL, one replicate): 0.0134
- fitness (B. subtilis 168 [4]; first compound 8 µg/mL, partner 1 µg/mL, one replicate): 0.0236
- fitness (B. subtilis 168 [4]; first compound 8 µg/mL, partner 2 µg/mL, one replicate): 0.0259
- fitness (B. subtilis 168 [4]; first compound 8 µg/mL, partner 4 µg/mL, one replicate): 0.0138
- fitness (B. subtilis 168 [4]; first compound 8 µg/mL, partner 8 µg/mL, one replicate): 0.0166
- fitness (B. subtilis 168 [4]; first compound 8 µg/mL, partner 16 µg/mL, one replicate): 0.0096
- fitness (S. pneumoniae D39V [5]; first compound 0.0037 µg/mL, partner 0.4275 µg/mL): 0.993
- fitness (S. pneumoniae D39V [5]; first compound 0.0037 µg/mL, partner 0.855 µg/mL): 0.986
- fitness (S. pneumoniae D39V [5]; first compound 0.0037 µg/mL, partner 1.71 µg/mL): 0.0722
- fitness (S. pneumoniae D39V [5]; first compound 0.005 µg/mL, partner 6.4 µg/mL): 0.0381
- fitness (S. pneumoniae D39V [5]; first compound 0.0075 µg/mL, partner 0.4275 µg/mL): 0.971
- fitness (S. pneumoniae D39V [5]; first compound 0.0075 µg/mL, partner 0.855 µg/mL): 0.974
- fitness (S. pneumoniae D39V [5]; first compound 0.0075 µg/mL, partner 1.71 µg/mL): 0.0723
- fitness (S. pneumoniae D39V [5]; first compound 0.01 µg/mL, partner 6.4 µg/mL): 0.0415
- fitness (S. pneumoniae D39V [5]; first compound 0.015 µg/mL, partner 0.4275 µg/mL): 0.898
- fitness (S. pneumoniae D39V [5]; first compound 0.015 µg/mL, partner 0.855 µg/mL): 0.922
- fitness (S. pneumoniae D39V [5]; first compound 0.015 µg/mL, partner 1.71 µg/mL): 0.089
- fitness (S. pneumoniae D39V [5]; first compound 0.02 µg/mL, partner 6.4 µg/mL): 0.0317

Compound: C/C(=C\C(=O)OCCCCCCCCC(=O)O)C[C@@H]1OC[C@H](C[C@@H]2O[C@H]2[C@@H](C)[C@H](C)O)[C@@H](O)[C@H]1O [Pseudomonic acid] + CCCCCCCCCC(=O)N[C@@H]1[C@H]([C@@H]([C@H](O[C@H]1OC2=C3C=C4C=C2OC5=C(C=C(C=C5)[C@H]([C@H]6C(=O)N[C@@H](C7=C(C(=CC(=C7)O)OC8[C@H]([C@H]([C@@H]([C@H](O8)CO)O)O)O)C9=C(C=CC(=C9)[C@H](C(=O)N6)NC(=O)[C@@H]4NC(=O)[C@@H]1C2=CC(=CC(=C2)OC2=C(C=CC(=C2)[C@H](C(=O)N[C@H](CC2=CC(=C(O3)C=C2)Cl)C(=O)N1)N)O)O)O)C(=O)O)O[C@H]1[C@@H]([C@H]([C@@H]([C@H](O1)CO)O)O)NC(=O)C)Cl)CO)O)O [Teicoplanin]
- Bliss interaction score (S. aureus Newman [1]): -0.0375
- Bliss interaction score (B. subtilis 168 [2]): 0.116
- Bliss interaction score (S. aureus DSM 20231): -0.0304
- Bliss interaction score (S. pneumoniae D39V [3]): 0.0843
- fitness (S. aureus Newman [6]; first compound 0.0313 µg/mL, partner 0.1562 µg/mL): 0.0547
- fitness (S. aureus Newman [6]; first compound 0.0313 µg/mL, partner 0.3125 µg/mL): 0.0341
- fitness (S. aureus Newman [6]; first compound 0.0313 µg/mL, partner 0.625 µg/mL): 0.0079
- fitness (S. aureus Newman [6]; first compound 0.0625 µg/mL, partner 0.1562 µg/mL): 0.0391
- fitness (S. aureus Newman [6]; first compound 0.0625 µg/mL, partner 0.3125 µg/mL): 0.0111
- fitness (S. aureus Newman [6]; first compound 0.0625 µg/mL, partner 0.625 µg/mL): 0.0049
- fitness (S. aureus Newman [6]; first compound 0.125 µg/mL, partner 0.1562 µg/mL): 0.0327
- fitness (S. aureus Newman [6]; first compound 0.125 µg/mL, partner 0.3125 µg/mL): 0.005
- fitness (S. aureus Newman [6]; first compound 0.125 µg/mL, partner 0.625 µg/mL): 0.0139
